Laboratory results published in ChEMBL document CHEMBL1132031, “4-Oxospiro[benzopyran-2,4'-piperidines] as selective alpha 1a-adrenergic receptor antagonists” (Bioorg Med Chem Lett, 1999).

How the values were obtained:
[1] = molecular target: T1, Alpha-1B adrenergic receptor (Homo sapiens, UniProt P35368); assay: Displacement of [125I]HEAT from human Alpha-1B adrenergic receptor expressed in LM cells; type: cell-based
T1 sequence (P35368 whole entry): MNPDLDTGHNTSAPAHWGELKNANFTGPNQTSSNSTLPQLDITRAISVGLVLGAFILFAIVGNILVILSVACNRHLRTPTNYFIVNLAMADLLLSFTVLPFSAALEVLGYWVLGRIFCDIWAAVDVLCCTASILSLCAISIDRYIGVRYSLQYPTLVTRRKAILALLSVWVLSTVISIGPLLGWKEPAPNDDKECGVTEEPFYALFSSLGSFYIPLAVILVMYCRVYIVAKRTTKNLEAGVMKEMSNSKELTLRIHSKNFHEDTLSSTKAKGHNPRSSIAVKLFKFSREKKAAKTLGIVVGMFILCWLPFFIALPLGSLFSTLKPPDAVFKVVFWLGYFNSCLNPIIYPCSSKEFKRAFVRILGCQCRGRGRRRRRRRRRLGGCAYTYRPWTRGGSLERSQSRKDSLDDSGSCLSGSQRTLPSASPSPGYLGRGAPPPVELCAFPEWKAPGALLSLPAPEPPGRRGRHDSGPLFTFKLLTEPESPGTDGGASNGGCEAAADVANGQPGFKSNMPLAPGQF

[2] = molecular target: T2, Alpha-1A adrenergic receptor (Homo sapiens, UniProt P35348); assay: Displacement of [125I]HEAT from human Alpha-1C adrenergic receptor expressed in CHO cells; type: cell-based
T2 sequence (P35348 whole entry): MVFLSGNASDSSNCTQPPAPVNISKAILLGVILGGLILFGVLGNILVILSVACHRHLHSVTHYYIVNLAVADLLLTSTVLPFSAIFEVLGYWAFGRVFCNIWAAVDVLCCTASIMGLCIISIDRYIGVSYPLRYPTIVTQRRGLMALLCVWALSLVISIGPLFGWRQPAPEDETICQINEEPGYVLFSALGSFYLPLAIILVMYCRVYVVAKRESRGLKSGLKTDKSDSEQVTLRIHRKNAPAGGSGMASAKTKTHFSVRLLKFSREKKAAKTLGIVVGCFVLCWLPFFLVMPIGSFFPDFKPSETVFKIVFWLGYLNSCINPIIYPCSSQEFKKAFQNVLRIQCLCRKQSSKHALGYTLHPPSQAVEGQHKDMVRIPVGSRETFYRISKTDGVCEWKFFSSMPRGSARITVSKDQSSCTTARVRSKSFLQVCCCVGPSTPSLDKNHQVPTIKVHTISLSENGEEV

[3] = molecular target: T3, Alpha-1D adrenergic receptor (Homo sapiens, UniProt P25100); assay: Displacement of [125I]HEAT from human Alpha-1D adrenergic receptor expressed in HEK cells; type: cell-based, HEK293
T3 sequence (P25100 whole entry): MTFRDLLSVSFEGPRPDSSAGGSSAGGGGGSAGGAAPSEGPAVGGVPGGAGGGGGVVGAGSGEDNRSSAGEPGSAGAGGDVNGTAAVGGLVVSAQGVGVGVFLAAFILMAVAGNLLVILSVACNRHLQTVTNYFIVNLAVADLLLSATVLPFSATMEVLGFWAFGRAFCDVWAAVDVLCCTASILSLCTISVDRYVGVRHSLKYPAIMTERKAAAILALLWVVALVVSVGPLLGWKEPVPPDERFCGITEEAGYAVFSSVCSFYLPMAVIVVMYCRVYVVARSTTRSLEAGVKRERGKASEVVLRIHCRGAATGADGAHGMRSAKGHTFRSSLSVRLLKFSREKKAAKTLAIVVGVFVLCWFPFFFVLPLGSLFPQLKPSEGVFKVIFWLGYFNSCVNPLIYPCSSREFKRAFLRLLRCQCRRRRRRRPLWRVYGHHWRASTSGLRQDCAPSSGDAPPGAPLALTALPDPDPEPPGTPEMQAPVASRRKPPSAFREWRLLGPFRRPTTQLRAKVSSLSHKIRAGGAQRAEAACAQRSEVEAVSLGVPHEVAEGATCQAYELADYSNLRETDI

Mustela putorius furo = species: Mustela putorius furo; assay: In vitro concentration required to increase the effective refractory period (ERP) above baseline was evaluated using isolated ferret papillary muscle preparations; type: functional; settings: Muscle tissue
[4] = molecular target: T4, Alpha-1A adrenergic receptor (Rattus norvegicus, UniProt P43140); assay: Binding affinity against Alpha-1A adrenergic receptor in rat prostatic tissue
T4 sequence (P43140 whole entry): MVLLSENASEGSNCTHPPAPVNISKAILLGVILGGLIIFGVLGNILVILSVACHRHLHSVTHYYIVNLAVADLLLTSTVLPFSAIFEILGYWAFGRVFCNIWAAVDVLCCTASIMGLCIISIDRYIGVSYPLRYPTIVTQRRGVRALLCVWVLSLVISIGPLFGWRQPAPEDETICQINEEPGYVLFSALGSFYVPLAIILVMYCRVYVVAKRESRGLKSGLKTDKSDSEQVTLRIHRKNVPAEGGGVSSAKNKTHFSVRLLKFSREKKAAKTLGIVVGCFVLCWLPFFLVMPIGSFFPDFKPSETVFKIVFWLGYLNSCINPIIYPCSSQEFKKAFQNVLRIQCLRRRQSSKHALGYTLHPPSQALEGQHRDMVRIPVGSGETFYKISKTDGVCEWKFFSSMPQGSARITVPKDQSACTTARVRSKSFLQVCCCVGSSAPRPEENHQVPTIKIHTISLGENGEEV

[5] = molecular target: T2, Alpha-1A adrenergic receptor; assay: Ability to displace [125I]HEAT from cloned human Alpha-1A adrenergic receptor stably expressed in CHO cells; type: cell-based
[6] = molecular target: T2, Alpha-1A adrenergic receptor; assay: Binding affinity against Alpha-1A adrenergic receptor in human prostatic tissue

SMILES | Ki [1] | Ki [2] | Ki [3] | Ki [4] | Ki [5] | Ki [6] | EC25 (Mustela putorius furo)
O=C1c2ccccc2CC12CCN(CCc1cccc3ccccc13)CC2 | 49 nM | 31 nM | 149 nM |  |  |  | 
C1=CC2(CCN(CCc3cccc4ccccc34)CC2)Oc2ccccc21 | 53 nM | 71 nM | 200 nM |  |  |  | 
CS(=O)(=O)Nc1ccc2c(c1)C(=O)CC1(CCN(CCc3ccccn3)CC1)O2 | > 2000 nM | > 2000 nM | 3840 nM |  |  |  | 0.033 µM
c1ccc2c(c1)CCC1(CCN(CCc3cccc4ccccc34)CC1)O2 | 55 nM | 56 nM | 99 nM |  |  |  | 
CS(=O)(=O)Nc1ccc2c(c1)OC1(CCN(CCc3ccccn3)CC1)CC2=O | > 2000 nM | 1670 nM | 3250 nM |  |  |  | 6.6 µM
COc1ccccc1CCN1CCC2(CC1)CC(=O)c1ccc(NS(C)(=O)=O)cc1O2 | 175 nM | 6.5 nM | 94 nM |  |  |  | 3.8 µM
O=C1CC2(CCN(CCc3ccccn3)CC2)Oc2ccccc21 | 1290 nM | 793 nM | 1520 nM |  |  |  | 0.16 µM
O=C1OC2(CCN(CCc3cccc4ccccc34)CC2)Cc2ccccc21 | 137 nM | 45 nM | 60 nM |  |  |  | 
Cc1[nH]c2ccccc2c1CCN1CCC2(CC1)CC(=O)c1ccc(NS(C)(=O)=O)cc1O2 | 221 nM | 8 nM | 115 nM |  |  |  | > 30 µM

Continued, in another order:

Ki [1] | Ki [2] | Ki [3] | Ki [4] | Ki [5] | Ki [6] | SMILES | EC25 (Mustela putorius furo)
53 nM | 8 nM | 24 nM |  |  |  | Cn1cnc(S(=O)(=O)Nc2ccc3c(c2)C(=O)CC2(CCN(CCc4cccc5ccccc45)CC2)O3)c1 | > 30 µM
24 nM |  | 18 nM | 10 nM | 0.69 nM | 10 nM | Cc1noc(C)c1S(=O)(=O)Nc1ccc2c(c1)C(=O)CC1(CCN(CCc3cccc4ccccc34)CC1)O2 | > 30 µM
48 nM | 53 nM | 67 nM |  |  |  | O=C1CC2(CCN(CCc3cccc4ccccc34)CC2)Oc2ccccc21 | 
24 nM | 13 nM | 53 nM |  |  |  | O=C1CC2(CCN(CCc3cccc4ccccc34)CC2)Oc2ccc(NS(=O)(=O)Cc3ccccc3)cc21 | > 30 µM
149 nM | 20 nM | 136 nM |  |  |  | CS(=O)(=O)Nc1ccc2c(c1)OC1(CCN(CCc3cccc4ccccc34)CC1)CC2=O | 9 µM
